Measurements as given in ChEMBL document CHEMBL5512688 (J Med Chem, 2024).

Legend:
A-427 [1] = experiment: Induction of apoptosis in human A-427 cells assessed as early apoptotic cells at 200 nM measured for 48 hrs by Annexin V/PI double staining based flow cytometry analysis (reference value: 1.96%); type: functional
A-427 [2] = experiment: Induction of apoptosis in human A-427 cells assessed as necrotic cells at 200 nM measured for 48 hrs by Annexin V/PI double staining based flow cytometry analysis (reference value: 0.098%); type: functional
A-427 [3] = experiment: Induction of cell cycle arrest in human A-427 cells assessed as accumulation of cells at G0/G1 phase at 400 nM measured for 48 hrs by flow cytometry analysis (reference value: 49.5%); type: functional
[4] = Clearance in ICR mouse at 1 mg/kg, iv measured upto 24 hrs by LC-MS/MS analysis; type: ADME, organism-based; conditions: in vivo
[5] = Volume of distribution in ICR mouse at 1 mg/kg, iv measured upto 24 hrs by LC-MS/MS analysis; type: ADME, organism-based; conditions: in vivo
[6] = Acute toxicity in female C57 mouse assessed as reduction in body weight at 2000 mg/kg, IG measured for 14 days; type: organism-based; conditions: in vivo, po, 336 h, time 14 day
A-427 [7] = experiment: Antiproliferative activity against human A-427 cells assessed as inhibition of cell growth incubated for 72 hrs by CCK-8 assay; type: functional, cell-based; conditions: A-427, 72 h
[8] = Metabolic stability in human liver microsome assessed as parent compound remaining measured at 60 mins by LCMS/MS analysis; type: ADME; conditions: liver microsomes, read-out: Stability
A-427 [9] = experiment: Induction of cell cycle arrest in human A-427 cells assessed as accumulation of cells at G0/G1 phase at 50 nM measured for 48 hrs by flow cytometry analysis (reference value: 49.5%); type: functional
Wee1-like protein kinase = Wee1-like protein kinase (Homo sapiens, UniProt P30291); experiment: Inhibition of Wee1 (unknown origin) at 1 uM relative to control
Sequence of Wee1-like protein kinase (P30291 whole entry, looked up): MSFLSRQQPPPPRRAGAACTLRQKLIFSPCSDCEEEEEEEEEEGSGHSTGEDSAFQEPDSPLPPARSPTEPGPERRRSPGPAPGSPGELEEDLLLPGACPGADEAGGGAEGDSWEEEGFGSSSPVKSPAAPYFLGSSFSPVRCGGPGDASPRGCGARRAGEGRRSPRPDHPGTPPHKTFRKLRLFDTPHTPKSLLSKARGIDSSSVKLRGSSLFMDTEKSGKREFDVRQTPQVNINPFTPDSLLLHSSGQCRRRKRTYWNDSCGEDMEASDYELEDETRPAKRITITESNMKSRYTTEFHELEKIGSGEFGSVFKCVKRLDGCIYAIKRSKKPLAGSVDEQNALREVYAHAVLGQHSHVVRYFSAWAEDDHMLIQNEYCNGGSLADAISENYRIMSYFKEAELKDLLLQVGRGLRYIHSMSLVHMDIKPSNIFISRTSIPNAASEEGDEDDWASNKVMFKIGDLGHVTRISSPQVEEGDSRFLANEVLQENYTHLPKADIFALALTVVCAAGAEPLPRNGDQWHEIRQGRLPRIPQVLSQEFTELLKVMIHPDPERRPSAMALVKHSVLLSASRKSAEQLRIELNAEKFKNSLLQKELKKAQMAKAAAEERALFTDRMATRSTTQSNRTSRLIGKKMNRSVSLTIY

A-427 [10] = experiment: Induction of apoptosis in human A-427 cells assessed as viable cells at 400 nM measured for 48 hrs by Annexin V/PI double staining based flow cytometry analysis (reference value: 97.7%); type: functional; conditions: read-out: Activity
LoVo = experiment: Antiproliferative activity against human LoVo cells assessed as inhibition of cell growth incubated for 72 hrs by CCK-8 method; type: functional, cell-based
A-427 [11] = experiment: Induction of cell cycle arrest in human A-427 cells assessed as accumulation of cells at S phase at 100 nM measured for 48 hrs by flow cytometry analysis (reference value: 4 %); type: functional
[12] = Half life in ICR mouse at 1 mg/kg, iv measured upto 24 hrs by LC-MS/MS analysis; type: ADME, organism-based; conditions: in vivo
A-427 [13] = experiment: Induction of apoptosis in human A-427 cells assessed as late apoptotic cells at 800 nM measured for 48 hrs by Annexin V/PI double staining based flow cytometry analysis (reference value: 0.21%); type: functional
A-427 [14] = experiment: Induction of cell cycle arrest in human A-427 cells assessed as accumulation of cells at G0/G1 phase at 100 nM measured for 48 hrs by flow cytometry analysis (reference value: 49.5%); type: functional
[15] = target: T1, Cyclin-G-associated kinase (Homo sapiens) (UniProt O14976); experiment: Inhibition of GAK (unknown origin) at 1 uM relative to control
T1 sequence (whole entry): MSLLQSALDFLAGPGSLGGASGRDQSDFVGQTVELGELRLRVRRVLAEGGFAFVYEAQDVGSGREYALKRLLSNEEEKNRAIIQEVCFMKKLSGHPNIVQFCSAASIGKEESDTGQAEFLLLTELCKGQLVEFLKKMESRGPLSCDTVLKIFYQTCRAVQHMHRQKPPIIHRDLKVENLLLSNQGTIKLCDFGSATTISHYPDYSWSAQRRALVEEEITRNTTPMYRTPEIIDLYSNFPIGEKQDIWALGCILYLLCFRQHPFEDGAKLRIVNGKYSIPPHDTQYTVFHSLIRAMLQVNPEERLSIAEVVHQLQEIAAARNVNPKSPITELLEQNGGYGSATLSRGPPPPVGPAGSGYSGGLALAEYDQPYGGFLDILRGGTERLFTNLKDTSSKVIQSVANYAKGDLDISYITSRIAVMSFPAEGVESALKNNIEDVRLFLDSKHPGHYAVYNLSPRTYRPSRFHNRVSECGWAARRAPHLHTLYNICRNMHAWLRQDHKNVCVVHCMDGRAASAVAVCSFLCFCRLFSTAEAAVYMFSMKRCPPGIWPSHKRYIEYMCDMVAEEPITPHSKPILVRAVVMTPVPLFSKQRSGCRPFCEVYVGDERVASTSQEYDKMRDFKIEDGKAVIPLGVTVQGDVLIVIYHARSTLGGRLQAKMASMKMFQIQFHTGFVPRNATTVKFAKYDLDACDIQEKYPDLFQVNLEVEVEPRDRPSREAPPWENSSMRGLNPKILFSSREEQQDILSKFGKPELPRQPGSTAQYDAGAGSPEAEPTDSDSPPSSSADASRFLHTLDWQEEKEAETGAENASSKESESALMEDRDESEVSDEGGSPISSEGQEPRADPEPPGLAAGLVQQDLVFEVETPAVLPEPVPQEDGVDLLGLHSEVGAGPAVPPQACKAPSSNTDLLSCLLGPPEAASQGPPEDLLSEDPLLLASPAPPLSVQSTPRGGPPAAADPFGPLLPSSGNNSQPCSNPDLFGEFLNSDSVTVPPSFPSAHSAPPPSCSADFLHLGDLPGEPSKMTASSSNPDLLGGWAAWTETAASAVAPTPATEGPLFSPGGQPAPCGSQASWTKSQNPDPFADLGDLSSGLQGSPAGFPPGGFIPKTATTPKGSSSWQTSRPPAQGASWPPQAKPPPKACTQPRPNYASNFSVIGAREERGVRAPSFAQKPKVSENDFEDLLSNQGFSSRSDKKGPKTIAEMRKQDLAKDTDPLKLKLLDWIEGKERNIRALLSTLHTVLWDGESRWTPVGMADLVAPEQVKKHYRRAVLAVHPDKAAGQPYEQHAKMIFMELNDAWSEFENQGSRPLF

[16] = Bioavailability in ICR mouse at 60 mg/kg, IG measured upto 24 hrs by LC-MS/MS analysis; type: ADME, organism-based; conditions: in vivo, po
A-427 [17] = experiment: Induction of cell cycle arrest in human A-427 cells assessed as accumulation of cells at G2/M phase at 100 nM measured for 48 hrs by flow cytometry analysis (reference value: 10.9 %); type: functional
A-427 [18] = experiment: Induction of apoptosis in human A-427 cells assessed as late apoptotic cells at 200 nM measured for 48 hrs by Annexin V/PI double staining based flow cytometry analysis (reference value: 0.21%); type: functional
A-427 [19] = experiment: Induction of cell cycle arrest in human A-427 cells assessed as accumulation of cells at G0/G1 phase at 200 nM measured for 48 hrs by flow cytometry analysis (reference value: 49.5%); type: functional

C=CCn1c(=O)c2cnc(Nc3ccc(N4CCN(C)CC4)cc3)nc2n1-c1cccc(-c2cnccn2)n1
Activity (A-427 [1]): 9.02%
Activity (A-427 [2]): 4.82%
Activity (A-427 [3]): 31.3%
clearance [4]: 137 mL/min/kg
Vd [5]: 11.3 L/kg
Activity [6]: Non-Toxic
IC50 (A-427 [7]): 84 nM
remaining at 1 h [8]: 58.5%
Activity (A-427 [9]): 40.9%
inhibition (Wee1-like protein kinase): 111%
viability at 0.4 µM (A-427 [10]): 58.3%
IC50 (LoVo): 82 nM
Activity (A-427 [11]): 48.5%
half-life [12]: 1.06 h
Activity (A-427 [13]): 35.4%
Activity (A-427 [14]): 41.4%
inhibition [15]: > 90%
bioavailability [16]: 61.5%
Activity (A-427 [17]): 7.09%
Activity (A-427 [18]): 25.6%
Activity (A-427 [19]): 31.6%
